Measurements from ChEMBL document CHEMBL4732134, “Identification of N-phenyl-3-methoxy-4-pyridinones as orally bioavailable H receptor antagonists and β-amyloid aggregation inhibitors for the treatment of Alzheimer's disease” (Eur J Med Chem, 2021).

Experiments:
Histamine H4 receptor = Histamine H4 receptor (Homo sapiens, UniProt Q9H3N8); assay: Antagonist activity at human histamine H4 receptor expressed in HEK293 cells preincubated for 5 mins followed by forskolin-stimulation and measured after 5 hrs by CRE-driven luciferase reporter gene assay; format: functional, cell-based
Histamine H2 receptor = Histamine H2 receptor (Homo sapiens, UniProt P25021); assay: Antagonist activity at human histamine H2 receptor expressed in HEK293 cells preincubated for 5 mins followed by forskolin-stimulation and measured after 5 hrs by CRE-driven luciferase reporter gene assay; format: functional, cell-based
Histamine H1 receptor = Histamine H1 receptor (Homo sapiens, UniProt P35367); assay: Antagonist activity at human histamine H1 receptor expressed in HEK293 cells preincubated for 5 mins followed by forskolin-stimulation and measured after 5 hrs by CRE-driven luciferase reporter gene assay; format: functional, cell-based
hERG (KCNH2) = hERG (KCNH2) (Homo sapiens, UniProt Q12809); assay: Inhibition of human ERG at 3 uM by patch clamp method relative to control
hERG (KCNH2), sequence (Q12809 whole entry): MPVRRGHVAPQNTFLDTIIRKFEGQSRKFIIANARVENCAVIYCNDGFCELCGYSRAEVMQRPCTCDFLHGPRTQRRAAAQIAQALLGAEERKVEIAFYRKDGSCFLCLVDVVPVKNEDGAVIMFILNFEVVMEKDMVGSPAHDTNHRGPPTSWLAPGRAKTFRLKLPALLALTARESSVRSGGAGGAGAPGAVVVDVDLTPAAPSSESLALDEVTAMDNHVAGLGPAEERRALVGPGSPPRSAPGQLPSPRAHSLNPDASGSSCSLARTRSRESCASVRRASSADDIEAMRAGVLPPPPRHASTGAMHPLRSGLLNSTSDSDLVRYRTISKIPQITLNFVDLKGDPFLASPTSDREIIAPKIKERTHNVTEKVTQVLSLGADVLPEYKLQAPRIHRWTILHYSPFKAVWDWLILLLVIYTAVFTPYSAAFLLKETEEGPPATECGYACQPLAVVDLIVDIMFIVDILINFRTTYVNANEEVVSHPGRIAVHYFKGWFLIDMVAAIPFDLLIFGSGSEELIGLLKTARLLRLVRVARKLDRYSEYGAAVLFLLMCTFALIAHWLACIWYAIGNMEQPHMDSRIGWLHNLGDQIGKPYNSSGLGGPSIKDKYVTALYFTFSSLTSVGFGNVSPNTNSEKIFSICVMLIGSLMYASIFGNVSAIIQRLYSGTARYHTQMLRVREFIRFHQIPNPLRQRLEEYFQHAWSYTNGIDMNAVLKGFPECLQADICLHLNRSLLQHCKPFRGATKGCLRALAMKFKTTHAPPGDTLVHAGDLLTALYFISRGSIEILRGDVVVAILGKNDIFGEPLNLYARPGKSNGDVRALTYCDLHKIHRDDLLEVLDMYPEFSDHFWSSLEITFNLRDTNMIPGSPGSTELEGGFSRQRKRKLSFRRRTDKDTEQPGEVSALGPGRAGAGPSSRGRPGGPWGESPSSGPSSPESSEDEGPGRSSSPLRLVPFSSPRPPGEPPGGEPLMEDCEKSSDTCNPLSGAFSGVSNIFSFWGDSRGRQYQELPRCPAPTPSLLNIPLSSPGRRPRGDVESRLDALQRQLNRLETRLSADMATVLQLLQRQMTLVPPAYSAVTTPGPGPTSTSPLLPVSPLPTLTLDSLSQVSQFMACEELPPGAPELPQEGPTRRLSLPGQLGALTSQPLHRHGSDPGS

Histamine H2 receptor, sequence (P25021 whole entry): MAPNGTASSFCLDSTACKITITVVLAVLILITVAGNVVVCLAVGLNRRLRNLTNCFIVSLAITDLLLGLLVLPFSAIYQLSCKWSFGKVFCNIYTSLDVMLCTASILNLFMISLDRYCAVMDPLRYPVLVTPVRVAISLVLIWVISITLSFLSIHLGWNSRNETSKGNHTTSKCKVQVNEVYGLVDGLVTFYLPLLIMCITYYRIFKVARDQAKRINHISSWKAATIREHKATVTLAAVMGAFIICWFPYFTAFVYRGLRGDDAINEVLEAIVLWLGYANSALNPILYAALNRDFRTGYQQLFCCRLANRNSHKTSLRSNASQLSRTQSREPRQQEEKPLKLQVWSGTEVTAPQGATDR
Histamine H1 receptor, sequence (P35367 whole entry): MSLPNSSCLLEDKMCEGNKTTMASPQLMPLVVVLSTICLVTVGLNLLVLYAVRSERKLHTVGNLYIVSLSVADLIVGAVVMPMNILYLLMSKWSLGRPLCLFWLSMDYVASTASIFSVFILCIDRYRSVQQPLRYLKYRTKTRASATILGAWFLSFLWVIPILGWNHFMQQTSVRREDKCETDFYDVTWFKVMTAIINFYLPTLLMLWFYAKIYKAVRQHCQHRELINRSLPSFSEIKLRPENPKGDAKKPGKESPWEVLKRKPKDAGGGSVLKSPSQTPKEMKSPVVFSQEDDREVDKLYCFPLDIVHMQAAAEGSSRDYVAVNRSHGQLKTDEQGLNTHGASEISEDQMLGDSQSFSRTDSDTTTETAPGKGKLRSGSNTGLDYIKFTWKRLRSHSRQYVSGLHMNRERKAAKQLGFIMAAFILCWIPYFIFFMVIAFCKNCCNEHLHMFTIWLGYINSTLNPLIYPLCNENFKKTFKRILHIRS
Histamine H4 receptor, sequence (Q9H3N8 whole entry): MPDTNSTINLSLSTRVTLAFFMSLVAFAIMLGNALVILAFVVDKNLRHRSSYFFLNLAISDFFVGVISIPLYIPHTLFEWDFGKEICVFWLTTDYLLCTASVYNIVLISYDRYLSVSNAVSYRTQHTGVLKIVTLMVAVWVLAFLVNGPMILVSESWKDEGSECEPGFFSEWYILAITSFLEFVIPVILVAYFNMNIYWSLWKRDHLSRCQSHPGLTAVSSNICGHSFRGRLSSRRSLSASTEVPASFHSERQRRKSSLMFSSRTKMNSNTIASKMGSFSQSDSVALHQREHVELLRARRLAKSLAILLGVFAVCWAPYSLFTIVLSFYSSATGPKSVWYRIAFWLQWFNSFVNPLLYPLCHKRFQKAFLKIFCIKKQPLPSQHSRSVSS

COc1cn(-c2ccc(OCCCN3CCCC3)cc2)ccc1=O
IC50 (Histamine H4 receptor): > 10 µM | IC50 (Histamine H2 receptor): > 10 µM | IC50 (Histamine H1 receptor): > 10 µM | inhibition at 3 µM (hERG (KCNH2)): 6.3%
